Measured values: patent US20040198800A1, “Lipoxygenase inhibitors as hypolipidemic and anti-hypertensive agents” (priority 2002, published 2004)

How the values were obtained:
[1] = background statement; cited from earlier work
[2] = test system: high fructose fed (HFF) rats; assay: Example 2: effect of lipoxygenase inhibitors on serum metabolic components of HFF rats; type: in vivo, Sprague-Dawley rats; details: for Cholesterol, Day 15 / Cholesterol, Day 19: serum total cholesterol; for Cholesterol, Day 19 / Glucose, Day 19 / FFA, Day 19 / Insulin, Day 19 / TG, Day 19: Day 19 after 4 days BID oral gavage (NDGA 250 mg/kg, BW 755c 100 mg/kg); for Glucose, Day 19: 3 hours after last dose
Method: Male rats were initially divided into HFF or chow (control) groups and maintained for 14 days on the prescribed diet. […] On days 15-19 all groups were treated by oral gavage twice daily with either drug or vehicle. On days 15 and 19 serum was collected for analysis. On day 20, the groups were subdivided to receive either LPS or vehicle (saline). Post-LPS treatment, the animals were sacrificed and their livers were isolated for analysis.
Male Sprague-Dawley rats weighing approximately 180-200 g first maintained on a rat chow diet and then were divided into four groups, three of which were switched to a high-fructose diet (Harlan Teklad, Madison, Wis.) that provided 60% of total calories as fructose (Day 1). On day 15 of treatment, the rats were fasted for 4 hours and tail vein blood was collected for baseline measurements of serum TG, glucose, insulin and free fatty acids (FFA) as previously described (Gowri et al., Am. J. Hypertension, 12: 744-746 (1999)). […] The chow group (diet control) was treated with vehicle. During the treatment regimen the animals were maintained on high-fructose diet. […] On day 20, four animals in each group were injected (iv) with 0.5 mg/kg BW Salmonella enterifdis endotoxin (lipopolysaccharide, LPS) or normal saline under light anaesthesia. After 2 hours, serum was collected for corticosterone measurement, as described previously (Kraemer et al., Endocrinology, 143: 801-806 (2002)), and then the animals were sacrificed and tissues removed, snap-frozen in liquid nitrogen and stored at −80° C. until analyzed. The local committee on animal care approved all animal protocols.
Statistical analysis were performed by either paired or unpaired t-test using GraphPad Prism version 3.00 for Windows, GraphPad Software, San Diego Calif. USA. A difference between groups was considered significant if P was less than 0.05. Normalized Western Blot data were obtained as a ratio of the units measured for phosphorylated protein divided by the units measured for total protein. Statistical analyses were performed on the normalized data.

in vivo animal models = details: Maya et al. 2000; Scribner et al. 2000; cited from earlier work
[3] = test system: high-fructose diet fed rats; assay: Example 1: in vivo efficacy of 5-LO inhibitors in diet-induced model of hypertriglyceridemia and hypertension (serum TG, FFA, insulin, glucose, body weight); design: species or system Sprague-Dawley rats; details: oral gavage twice a day for 5 days; for effect on serum triglycerides: NDGA 250 mg/kg (p=0.0004), BW 755c 100 mg/kg (p=0.0002), day 0 vs day 5, FIG. 1; for effect on serum insulin levels: NDGA 250 mg/kg (p=0.003); for effect on serum insulin levels / effect on increase in serum free fatty acids during treatment / effect on serum glucose: BW 755c 100 mg/kg; for effect on increase in serum free fatty acids during treatment / effect on serum glucose: NDGA 250 mg/kg
Excerpt: Male Sprague-Dawley rats weighting 175-200 g were used in these studies. […]. Rats were first maintained on a chow diet for ˜1 wk and then were divided into four groups (7 or 8 animals in each group). Three groups were switched to a high-fructose diet (Harlan Teklad, Madison, Wis.) that provided 60% of total calories as fructose. The fourth group was maintained on normal chow to serve as an overall control group. After 14 days on the high-fructose diet, the degree of hypertriglyceridemia was evaluated by determining the total plasma TG levels. On day 0 of treatment, tail vein blood was collected for baseline measurements of serum TG, glucose, insulin, and FFA. […] All animals were dosed two times a day for 5 days (days 1-5), delivered by oral gavage. On day 5 of treatment (approximately 3 hours after the oral dose) vein blood was collected for measurements of serum TG, glucose, insulin, and FFA. During the treatment period, rats were maintained on their prescribed diets. Body weights were measured on day 0 and day 5.
Serum samples were used to measure TG and glucose concentrations by enzymatic […] methods using Sigma Diagnostic kits (St. Louis, Mo.). Serum insulin concentrations were by RIA using a Linco Rat Insulin RIA kit (St. Charles, Mo.). FFA concentrations were measured using the nonesterified fatty acid (NEFA) C kit by the ACS-ACOD method following the instructions of the manufacturer.
Data was statistically analyzed using paired t-tests to determine significance.

diabetic rat model = details: Babu et al. 1997; cited from earlier work
[4] = Day 15 = baseline before drug treatment, mean ± S.E., n = 7-8
[5] = serum, Day 15 = baseline before drug treatment, mean ± S.E., n = 7-8

Row | Compound | bioavailability [1] | effect on fasting blood glucose ([2]; four days BID oral treatment) | effect on fasting serum insulin ([2]; four days BID oral treatment) | effect on serum total cholesterol ([2]; four days BID oral treatment) | Cholesterol, Day 15 [2, 4] [mg/dL] | Cholesterol, Day 19 ([2]; mean ± S.E., n = 7-8) | FFA, Day 15 [2, 5] [μEq/L] | Insulin, Day 15 [2, 5] [ng/mL] | TG, Day 15 [2, 5] [mg/dL] | Glucose, Day 19 ([2]; serum, mean ± S.E., n = 7-8) [mg/dL] | FFA, Day 19 ([2]; serum, mean ± S.E., n = 7-8) [μEq/L] | Insulin, Day 19 ([2]; serum, mean ± S.E., n = 7-8) | TG, Day 19 ([2]; serum, mean ± S.E., n = 7-8) | properties in in vivo animal models (in vivo animal models) | effect on serum triglycerides [3] | effect on serum insulin levels [3] | effect on increase in serum free fatty acids during treatment [3] | effect on serum glucose [3] | properties in in vivo diabetic rat model (diabetic rat model) | Glucose, Day 15 ([2]; serum, Day 15 = baseline before drug treatment, 4 h fasted, mean ± S.E., n = 7-8) [mg/dL]
1 | C[C@H](Cc1ccc(O)c(O)c1)[C@@H](C)Cc1ccc(O)c(O)c1 [NDGA, nordihydroguaiaretic acid] | poorly bioavailable | without significantly altering | significantly decreased | significantly reduced | 118.6 ± 3 | 98.3 ± 4(^7) mg/dL | 599 ± 51 | 2.3 ± 0.3 | 384 ± 48 | 122 ± 8 | 611 ± 101 | 0.9 ± 0.1(′) ng/mL | 97 ± 6 mg·s/dL | hypolipidemic and antihypertensive properties | significantly reduced | significantly lowered | ameliorated | without increasing serum glucose |  | 
2 | COc1cc(/C=C/C(=O)CC(=O)/C=C/c2ccc(O)c(OC)c2)ccc1O [Curcumin] | poorly bioavailable |  |  |  |  |  |  |  |  |  |  |  |  |  |  |  |  |  | hypolidemic properties | 
3 | NC1=NN(c2cccc(C(F)(F)F)c2)CC1 [BW 755c, 4,5-dihydro-1-(3-(trifluoromethyl)phenyl)-1H-pyrazol-3-amine] |  |  |  | Neither of these effects was observed | 107.6 ± 3 | 104.5 ± 2 mg/dL | 554 ± 71 | 1.6 ± 0.3 | 296 ± 31 | 114 ± 7 | 504 ± 42 | 1.7 ± 0.3 ng/mL | 112 ± 20(^4) mg/dL |  | significantly reduced | no effect | ameliorated | no effect |  | 119 ± 7
